The term IC50 denotes the concentration at which inhibition is half-maximal. Low readings indicate inhibition by little substance, high ones a need for much substance.

VEGFR2, unphosphorylated, sequence (P35968 20-1356): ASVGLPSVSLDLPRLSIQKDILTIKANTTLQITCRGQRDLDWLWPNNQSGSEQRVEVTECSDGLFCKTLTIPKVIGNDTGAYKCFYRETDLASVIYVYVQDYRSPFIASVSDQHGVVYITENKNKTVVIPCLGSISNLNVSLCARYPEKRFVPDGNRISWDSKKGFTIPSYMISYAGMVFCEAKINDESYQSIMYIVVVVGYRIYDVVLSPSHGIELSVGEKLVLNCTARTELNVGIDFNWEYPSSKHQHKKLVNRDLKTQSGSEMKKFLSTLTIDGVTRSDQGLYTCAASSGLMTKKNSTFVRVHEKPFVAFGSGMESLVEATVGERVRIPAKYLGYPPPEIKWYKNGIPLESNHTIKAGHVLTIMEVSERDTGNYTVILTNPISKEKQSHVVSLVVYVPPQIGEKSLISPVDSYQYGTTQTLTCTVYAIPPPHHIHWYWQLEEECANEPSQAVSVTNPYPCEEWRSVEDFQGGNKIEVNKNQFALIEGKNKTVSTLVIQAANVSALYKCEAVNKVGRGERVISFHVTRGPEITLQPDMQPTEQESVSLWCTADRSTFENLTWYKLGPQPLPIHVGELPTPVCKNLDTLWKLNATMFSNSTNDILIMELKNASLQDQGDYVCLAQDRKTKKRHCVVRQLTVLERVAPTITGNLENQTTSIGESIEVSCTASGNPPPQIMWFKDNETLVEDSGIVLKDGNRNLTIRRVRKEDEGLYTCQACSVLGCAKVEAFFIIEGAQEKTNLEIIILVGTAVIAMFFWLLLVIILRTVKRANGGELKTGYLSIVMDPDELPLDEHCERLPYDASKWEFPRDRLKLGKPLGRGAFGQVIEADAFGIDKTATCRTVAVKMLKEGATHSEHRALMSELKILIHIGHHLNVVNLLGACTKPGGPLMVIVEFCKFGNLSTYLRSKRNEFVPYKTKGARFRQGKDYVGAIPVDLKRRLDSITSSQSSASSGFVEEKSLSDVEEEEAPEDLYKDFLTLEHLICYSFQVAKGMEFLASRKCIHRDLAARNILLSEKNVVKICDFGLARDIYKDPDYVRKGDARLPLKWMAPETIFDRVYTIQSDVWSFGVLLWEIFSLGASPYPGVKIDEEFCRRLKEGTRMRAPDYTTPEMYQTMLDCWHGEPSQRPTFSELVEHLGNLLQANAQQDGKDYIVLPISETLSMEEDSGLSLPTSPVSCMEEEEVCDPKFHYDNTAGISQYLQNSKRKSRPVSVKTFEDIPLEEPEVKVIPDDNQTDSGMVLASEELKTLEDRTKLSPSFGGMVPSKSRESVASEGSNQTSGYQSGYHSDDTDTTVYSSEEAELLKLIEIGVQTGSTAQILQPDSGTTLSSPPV

The assay addresses VEGFR2, unphosphorylated (Homo sapiens (Human), UniProt P35968). The assay can be described thus: VEGFR ADP GLO Assay. Format: biochemical. On the technique in general: In ADP-Glo the light output rises with the ADP produced.
The compound `CC[C@@H]1COCCN1CC(=O)Nc1cnc(C)c(NC(=O)c2cnn3cc(-c4cnn(C)c4)sc23)c1` [Example 69, (R)—N-(5-(2-(3-ethylmorpholino)acetamido)-2-methylpyridin-3-yl)-2-(1-methyl-1H-pyrazol-4-yl)pyrazolo[5,1-b]thiazole-7-carboxamide] displayed an IC50 of over 7.5 µM.

In the case of `CC[C@H]1COCCN1CC(=O)Nc1cnc(C)c(NC(=O)c2cnn3cc(-c4cnn(C)c4)sc23)c1` [Example 70, (S)—N-(5-(2-(3-ethylmorpholino)acetamido)-2-methylpyridin-3-yl)-2-(1-methyl-1H-pyrazol-4-yl)pyrazolo[5,1-b]thiazole-7-carboxamide], the IC50 was over 7.5 µM.

Take `Cc1ncc(NC(=O)CN2[C@H](C)COC[C@@H]2C)cc1NC(=O)c1cnn2cc(-c3cnn(C)c3)sc12` [Example 71, N-(5-(2-((3S,5R)-3,5-dimethylmorpholino)acetamido)-2-methylpyridin-3-yl)-2-(1-methyl-1H-pyrazol-4-yl)pyrazolo[5,1-b]thiazole-7-carboxamide]: the IC50 was over 7.5 µM.

Regarding `Cc1ncc(NC(=O)CN2CCN(C)C(=O)C2)cc1NC(=O)c1cnn2cc(-c3cnn(C)c3)sc12` [Example 72, 2-(1-methyl-1H-pyrazol-4-yl)-N-(2-methyl-5-(2-(4-methyl-3-oxopiperazin-1-yl)acetamido)pyridin-3-yl)pyrazolo[5,1-b]thiazole-7-carboxamide], the IC50 was over 7.5 µM.

`Cc1ncc(NC(=O)CN2CCC(F)(F)C2)cc1NC(=O)c1cnn2cc(-c3cnn(C)c3)sc12` [Example 73, N-(5-(2-(3,3-difluoropyrrolidin-1-yl)acetamido)-2-methylpyridin-3-yl)-2-(1-methyl-1H-pyrazol-4-yl)pyrazolo[5,1-b]thiazole-7-carboxamide] returned an IC50 of over 7.5 µM.

Turning to `Cc1ncc(NC(=O)CN2CCOC[C@@H]2C)cc1NC(=O)c1cnn2cc(-c3cnn(C)c3)sc12` [Example 74, (S)-2-(1-methyl-1H-pyrazol-4-yl)-N-(2-methyl-5-(2-(3-methylmorpholino)acetamido)pyridin-3-yl)pyrazolo[5,1-b]thiazole-7-carboxamide], the IC50 is over 7.5 µM.

With `Cc1ncc(NC(=O)CN2CCn3ccnc3C2)cc1NC(=O)c1cnn2cc(-c3cnn(C)c3)sc12` [Example 75, N-(5-(2-(5,6-dihydroimidazo[1,2-a]pyrazin-7 (8H)-yl)acetamido)-2-methylpyridin-3-yl)-2-(1-methyl-1H-pyrazol-4-yl)pyrazolo[5,1-b]thiazole-7-carboxamide], the IC50 was over 7.5 µM.

The compound `Cc1ncc(NC(=O)CN2Cc3ncsc3C2)cc1NC(=O)c1cnn2cc(-c3cnn(C)c3)sc12` [Example 76, N-(5-(2-(4H-pyrrolo[3,4-d]thiazol-5 (6H)-yl)acetamido)-2-methylpyridin-3-yl)-2-(1-methyl-1H-pyrazol-4-yl)pyrazolo[5,1-b]thiazole-7-carboxamide] gave an IC50 of over 7.5 µM.

Compound `Cc1ncc(NC(=O)CN2Cc3ccncc3C2)cc1NC(=O)c1cnn2cc(-c3cnn(C)c3)sc12` [Example 77, N-(5-(2-(1H-pyrrolo[3,4-c]pyridin-2 (3H)-yl)acetamido)-2-methylpyridin-3-yl)-2-(1-methyl-1H-pyrazol-4-yl)pyrazolo[5,1-b]thiazole-7-carboxamide] showed an IC50 of over 7.5 µM.

`Cc1ncc(NC(=O)CN2CCOCC23CCC3)cc1NC(=O)c1cnn2cc(-c3cnn(C)c3)sc12` [Example 78, N-(5-(2-(8-oxa-5-azaspiro[3.5]nonan-5-yl)acetamido)-2-methylpyridin-3-yl)-2-(1-methyl-1H-pyrazol-4-yl)pyrazolo[5,1-b]thiazole-7-carboxamide] had an IC50 of over 7.5 µM.

Compound `COCC1CCCN1CC(=O)Nc1cnc(C)c(NC(=O)c2cnn3cc(-c4cnn(C)c4)sc23)c1` (stereo not drawn) [Example 79, N-(5-(2-(2-(methoxymethyl)pyrrolidin-1-yl)acetamido)-2-methylpyridin-3-yl)-2-(1-methyl-1H-pyrazol-4-yl)pyrazolo[5,1-b]thiazole-7-carboxamide] yielded an IC50 of over 7.5 µM.

In turn, `Cc1ncc(NC(=O)CN2CCCOCC2)cc1NC(=O)c1cnn2cc(-c3cnn(C)c3)sc12` [Example 80, N-(5-(2-(1,4-oxazepan-4-yl)acetamido)-2-methylpyridin-3-yl)-2-(1-methyl-1H-pyrazol-4-yl)pyrazolo[5,1-b]thiazole-7-carboxamide] returned an IC50 of over 7.5 µM.

As to `Cc1ncc(NC(=O)CN2CCC3(CCO3)CC2)cc1NC(=O)c1cnn2cc(-c3cnn(C)c3)sc12` [Example 81, N-(5-(2-(1-oxa-7-azaspiro[3.5]nonan-7-yl)acetamido)-2-methylpyridin-3-yl)-2-(1-methyl-1H-pyrazol-4-yl)pyrazolo[5,1-b]thiazole-7-carboxamide], the IC50 is over 7.5 µM.

As for `Cc1ncc(NC(=O)CN2CCC2(C)C)cc1NC(=O)c1cnn2cc(-c3cnn(C)c3)sc12` [Example 82, N-(5-(2-(2,2-dimethylazetidin-1-yl)acetamido)-2-methylpyridin-3-yl)-2-(1-methyl-1H-pyrazol-4-yl)pyrazolo[5,1-b]thiazole-7-carboxamide], the IC50 is over 7.5 µM.

`COC1CCN(CC(=O)Nc2cnc(C)c(NC(=O)c3cnn4cc(-c5cnn(C)c5)sc34)c2)CC1` [Example 83, N-(5-(2-(4-methoxypiperidin-1-yl)acetamido)-2-methylpyridin-3-yl)-2-(1-methyl-1H-pyrazol-4-yl)pyrazolo[5,1-b]thiazole-7-carboxamide] displayed an IC50 of over 7.5 µM.

On to `Cc1ncc(NC(=O)CN2CCC[C@@H]2C)cc1NC(=O)c1cnn2cc(-c3cnn(CCO)c3)sc12` [Example 84, (S)-2-(1-(2-hydroxyethyl)-1H-pyrazol-4-yl)-N-(2-methyl-5-(2-(2-methylpyrrolidin-1-yl)acetamido)pyridin-3-yl)pyrazolo[5,1-b]thiazole-7-carboxamide], for which the IC50 is over 7.5 µM.

Compound `Cc1ncc(NC(=O)CN2CCCCC23CC3)cc1NC(=O)c1cnn2cc(-c3cnn(CCO)c3)sc12` [Example 86, N-(5-(2-(4-azaspiro[2.5]octan-4-yl)acetamido)-2-methylpyridin-3-yl)-2-(1-(2-hydroxyethyl)-1H-pyrazol-4-yl)pyrazolo[5,1-b]thiazole-7-carboxamide] displayed an IC50 of over 7.5 µM.

As to `Cc1ncc(NC(=O)CN2CCCC23CC3)cc1NC(=O)c1cnn2cc(-c3cnn(CCO)c3)sc12` [Example 87, N-(5-(2-(4-azaspiro[2.4]heptan-4-yl)acetamido)-2-methylpyridin-3-yl)-2-(1-(2-hydroxyethyl)-1H-pyrazol-4-yl)pyrazolo[5,1-b]thiazole-7-carboxamide], the IC50 was over 7.5 µM.

With `Cc1ncc(NC(=O)CCN2CCCC2(C)C)cc1NC(=O)c1cnn2cc(-c3cnn(CCO)c3)sc12` [Example 88, N-(5-(3-(2,2-dimethylpyrrolidin-1-yl)propanamido)-2-methylpyridin-3-yl)-2-(1-(2-hydroxyethyl)-1H-pyrazol-4-yl)pyrazolo[5,1-b]thiazole-7-carboxamide], the IC50 is over 7.5 µM.

`COCCn1cc(-c2cn3ncc(C(=O)Nc4cc(NC(=O)CCN5CCC(C)(C)C5)cnc4C)c3s2)cn1` [Example 89, N-(5-(3-(3,3-dimethylpyrrolidin-1-yl)propanamido)-2-methylpyridin-3-yl)-2-(1-(2-methoxyethyl)-1H-pyrazol-4-yl)pyrazolo[5,1-b]thiazole-7-carboxamide] showed an IC50 of over 7.5 µM.

Regarding `COCCn1cc(-c2cn3ncc(C(=O)Nc4cc(NC(=O)CCN5CCC6(CCC6)C5)cnc4C)c3s2)cn1` [Example 90, N-(5-(3-(6-azaspiro[3.4]octan-6-yl)propanamido)-2-methylpyridin-3-yl)-2-(1-(2-methoxyethyl)-1H-pyrazol-4-yl)pyrazolo[5,1-b]thiazole-7-carboxamide], the IC50 is over 2.5 µM.

In turn, `COCCn1cc(-c2cn3ncc(C(=O)Nc4cc(NC(=O)CCN5CCC6(CC6)C5)cnc4C)c3s2)cn1` [Example 91, N-(5-(3-(5-azaspiro[2.4]heptan-5-yl)propanamido)-2-methylpyridin-3-yl)-2-(1-(2-methoxyethyl)-1H-pyrazol-4-yl)pyrazolo[5,1-b]thiazole-7-carboxamide] had an IC50 of over 7.5 µM.

`COCCn1cc(-c2cn3ncc(C(=O)Nc4cc(NC(=O)CCN5C[C@@H]6CC[C@H]5C6)cnc4C)c3s2)cn1` [Example 92, N-(5-(3-((1S,4R)-2-azabicyclo[2.2.1]heptan-2-yl)propanamido)-2-methylpyridin-3-yl)-2-(1-(2-methoxyethyl)-1H-pyrazol-4-yl)pyrazolo[5,1-b]thiazole-7-carboxamide] yielded an IC50 of over 7.5 µM.

As for `COCCn1cc(-c2cn3ncc(C(=O)Nc4cc(NC(=O)CCN5CC(C)(C)C5)cnc4C)c3s2)cn1` [Example 93, N-(5-(3-(3,3-dimethylazetidin-1-yl)propanamido)-2-methylpyridin-3-yl)-2-(1-(2-methoxyethyl)-1H-pyrazol-4-yl)pyrazolo[5,1-b]thiazole-7-carboxamide], the IC50 was over 7.5 µM.

As for `COCCn1cc(-c2cn3ncc(C(=O)Nc4cc(NC(=O)CCN5C[C@H]6CC[C@@H]5C6)cnc4C)c3s2)cn1` [Example 94, N-(5-(3-((1R,4S)-2-azabicyclo[2.2.1]heptan-2-yl)propanamido)-2-methylpyridin-3-yl)-2-(1-(2-methoxyethyl)-1H-pyrazol-4-yl)pyrazolo[5,1-b]thiazole-7-carboxamide], the IC50 was over 7.5 µM.

With `Cc1ncc(C(=O)NCCN2CCCC2(C)C)cc1NC(=O)c1cnn2cc(-c3ccnc(N4CCOCC4)c3)sc12` [Example 483, N-(5-((2-(2,2-dimethylpyrrolidin-1-yl)ethyl)carbamoyl)-2-methylpyridin-3-yl)-2-(2-morpholinopyridin-4-yl)pyrazolo[5,1-b]thiazole-7-carboxamide], the IC50 was over 7.5 µM.

In turn, `Cc1ncc(C(=O)NCCN2CC3CCC2CC3)cc1NC(=O)c1cnn2cc(-c3ccnc(N4CCOCC4)c3)sc12` [Example 484, N-(5-((2-(2-azabicyclo[2.2.2]octan-2-yl)ethyl)carbamoyl)-2-methylpyridin-3-yl)-2-(2-morpholinopyridin-4-yl)pyrazolo[5,1-b]thiazole-7-carboxamide] gave an IC50 of over 7.5 µM.

The values are drawn from patent US20240109917A1 (ACTELION PHARMACEUTICALS LTD, priority 2020, published 2024).
